For series [1], the target named is T1, JAK2 (Homo sapiens, UniProt O60674).
T1 construct: purchased Carna Biosciences
Briefly: JAK2 kinase activity, microfluidic assay (Caliper EZ Reader II). Format: biochemical. The note with it: JAK2 0.125 nM, 1 mM ATP. The method in brief:
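Human JAK1, JAK2 or TYK2 enzyme was used in 50 mM HEPES, 10 mM MgCl2, 2 mM DTT and 0.01% Brij35, tuned to 10% conversion of a FAM-labelled peptide. Threefold dilutions of compound (top 5 µM, 1% DMSO) were pre-incubated with enzyme for 10 min, and reactions were stopped with EDTA. Phosphorylation was read by microfluidic mobility shift, and IC50 came from percent-inhibition curves.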

The target in series [2] is T2, Ba/F3-FL-TYK2-P760L cells (Homo sapiens, UniProt P29597, P760L, cells depend on it).
T2 construct: BaF3-FL-T2P760L (nM)
Briefly: Anti-proliferative assay, Ba/F3-FL-TYK2-P760L cells (Cell-Titer Glo). Particulars: 72 h, read-out: BaF3-FL-T2P760L IC50. Format: cell-based. A digest of the protocol: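 Ba/F3 cells made IL-3-independent by TEL-fused or full-length mutant JAK-family kinases, seeded at 2000/well and dosed after 24 h with 9 three-fold dilutions topping at 20 μM. Viability after 72 h at 37 °C, 5% CO2 by Cell-Titer Glo ATP luminescence.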

The subject of series [3] is pSTAT1. The series is described as follows: Phosphorylation inhibition of STAT in human whole blood, IFN-alpha stimulated (flow cytometry). The note with it: 20 min; human whole blood, IFN-alpha 20 mins, CD3 cells; read-out: IC50 on pSTAT1 inhibition in h WB. The class given is cell-based. The method in brief:
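Freshly prepared PBMC or freshly collected whole blood stimulated with human Universal Type I IFN-alpha for 20 min, then fixed, permeabilized on ice and stained for CD3 and pSTAT1 (Y701). pSTAT1 read by flow cytometry; IC50 from 4-parameter logistic fit.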
(In flow cytometry, cells or beads pass a laser one at a time.)

Series [4] deals with pSTAT1. The series is described as follows: Phosphorylation inhibition of STAT in human PBMC, IFN-alpha stimulated (flow cytometry). Format: cell-based. Particulars: 20 min; human PBMC, IFN-alpha 20 mins, CD3 cells; read-out: IC50 on pSTAT1 inhibition in hPBMC. On the procedure:
Phosphorylation Inhibition of STAT in Human PBMC and Human Whole Blood Testing:
The inhibitory potential of test articles in human PBMC and human whole blood assay was evaluated by the method of flow cytometry.
IFN-alpha will activate JAK1 and TYK2 kinase in T cells by binding to IFN receptors, and then lead to phosphorylation of STAT1 and STAT2. The phosphorylated STAT1 enter nuclear and promote transcription and expression of IFN-gamma. To evaluate the efficacy of TYK2i in T cells, freshly prepared human PBMC or freshly collected human whole blood will be stimulated with certain unit of human IFN-alpha (Universal Type I IFN(1MU), R&D, 11200-2) for 20 mins in incubator. After stimulation, fix cells with Phosflow™ Fix Buffer I (BD, 557870), and then collect fixed cells by centrifugation (500 g, 8 min). Wash cells once with pre-cooled PBS, and then permeabilize cells with cold Perm Buffer III buffer (BD, 558050) for 45 mins on ice. Collect cells by centrifugation (600 g, 8 min) and washed twice with cold PBS. Stain cells with anti-human CD3 (FITC Mouse Anti-Human CD3, BD, 555332) and anti-pSTAT1_Y701(Alexa Fluor 647 Mouse Anti-Stat1 (pY701), BD, 612597) antibodies. Detect pSTAT1 by flow cytometry (CytoFlex S) and analyze data with FlowJo and GraphPad Prism 8 software. IC50 values of test articles were determined using 4-parameter logistic equation.

A short description of series [5]: Plasma protein binding by equilibrium dialysis. The class given is in vitro ADME. The note with it: human plasma, equilibrium dialysis 5 hours at 37° C.; read-out: % Bound (human) (converted). A digest of the protocol:
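Compound spiked into plasma at 0.2 and 2 μM was dialyzed against PBS for 5 h at 37° C with shaking, in duplicate. Plasma and buffer chambers were matrix-matched, protein-precipitated and analysed by LC-MS/MS to derive % unbound, % bound and % recovery.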
A general note: In equilibrium dialysis only unbound substance equilibrates across the membrane.

The nature of series [6]: Kinetic solubility. Format: physicochemical. Particulars: phosphate buffer, aqueous buffer, kinetic from dmso stock, PBS (pH 7.4), 1% DMSO, room temperature. The procedure: Aliquots of 8 μL of reference and test compound stock solutions (10 mM/5 mM) are added into 792 μL of 100 mM pH 7.4 phosphate buffer. The final DMSO concentration is 1%. Sample tubes are shaken for 2 hours at 1000 rpm at room temperature. Samples are centrifuged at 12000 rpm for 10 min to precipitate un-dissolved particles. And transfer the supernatants to a new tube or plate. Add 5 μL of samples (no diluted, 10 times diluted and 100 times diluted) and standard curve samples to 95 μL of ACN containing IS for LC-MS/MS analysis.

The source of these data is US20250115597A1, “TYK2 INHIBITORS AND COMPOSITIONS AND METHODS THEREOF” (LYNK PHARMACEUTICALS CO. LTD., priority 2021, published 2025).

In brackets after ≈: the same amount, converted by molar mass. Where only a bound is given, the exact number is not on record here.

T2 sequence (P29597 whole entry P760L): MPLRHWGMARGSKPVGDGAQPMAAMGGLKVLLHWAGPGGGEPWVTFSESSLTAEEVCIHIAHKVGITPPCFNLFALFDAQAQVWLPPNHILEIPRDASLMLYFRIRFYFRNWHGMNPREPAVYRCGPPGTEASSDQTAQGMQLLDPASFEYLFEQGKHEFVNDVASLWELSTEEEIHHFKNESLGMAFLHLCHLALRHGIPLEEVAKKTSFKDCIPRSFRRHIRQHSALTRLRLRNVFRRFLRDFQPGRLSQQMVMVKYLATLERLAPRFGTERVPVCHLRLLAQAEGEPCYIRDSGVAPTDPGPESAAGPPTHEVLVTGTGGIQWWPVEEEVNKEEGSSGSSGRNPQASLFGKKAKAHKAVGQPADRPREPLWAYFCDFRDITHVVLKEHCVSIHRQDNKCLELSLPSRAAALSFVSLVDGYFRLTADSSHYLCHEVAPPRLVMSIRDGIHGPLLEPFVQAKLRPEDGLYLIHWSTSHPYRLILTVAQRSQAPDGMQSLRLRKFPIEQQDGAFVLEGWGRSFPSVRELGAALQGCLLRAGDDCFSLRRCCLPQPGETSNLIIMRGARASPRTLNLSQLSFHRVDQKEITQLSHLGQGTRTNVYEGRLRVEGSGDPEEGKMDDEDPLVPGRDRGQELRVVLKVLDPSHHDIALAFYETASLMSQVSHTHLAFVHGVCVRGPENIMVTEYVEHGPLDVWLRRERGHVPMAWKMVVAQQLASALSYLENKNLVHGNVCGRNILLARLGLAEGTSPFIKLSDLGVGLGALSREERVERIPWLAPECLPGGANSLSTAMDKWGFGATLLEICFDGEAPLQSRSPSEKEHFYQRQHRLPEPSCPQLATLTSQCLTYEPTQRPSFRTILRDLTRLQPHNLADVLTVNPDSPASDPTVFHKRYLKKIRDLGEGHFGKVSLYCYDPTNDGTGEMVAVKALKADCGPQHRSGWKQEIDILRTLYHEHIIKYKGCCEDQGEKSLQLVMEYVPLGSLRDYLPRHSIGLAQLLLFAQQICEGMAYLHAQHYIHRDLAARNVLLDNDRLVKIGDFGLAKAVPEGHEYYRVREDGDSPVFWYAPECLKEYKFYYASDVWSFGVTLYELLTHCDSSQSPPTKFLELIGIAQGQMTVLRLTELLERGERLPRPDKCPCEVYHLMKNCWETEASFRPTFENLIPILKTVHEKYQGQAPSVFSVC
T1 sequence (O60674 whole entry): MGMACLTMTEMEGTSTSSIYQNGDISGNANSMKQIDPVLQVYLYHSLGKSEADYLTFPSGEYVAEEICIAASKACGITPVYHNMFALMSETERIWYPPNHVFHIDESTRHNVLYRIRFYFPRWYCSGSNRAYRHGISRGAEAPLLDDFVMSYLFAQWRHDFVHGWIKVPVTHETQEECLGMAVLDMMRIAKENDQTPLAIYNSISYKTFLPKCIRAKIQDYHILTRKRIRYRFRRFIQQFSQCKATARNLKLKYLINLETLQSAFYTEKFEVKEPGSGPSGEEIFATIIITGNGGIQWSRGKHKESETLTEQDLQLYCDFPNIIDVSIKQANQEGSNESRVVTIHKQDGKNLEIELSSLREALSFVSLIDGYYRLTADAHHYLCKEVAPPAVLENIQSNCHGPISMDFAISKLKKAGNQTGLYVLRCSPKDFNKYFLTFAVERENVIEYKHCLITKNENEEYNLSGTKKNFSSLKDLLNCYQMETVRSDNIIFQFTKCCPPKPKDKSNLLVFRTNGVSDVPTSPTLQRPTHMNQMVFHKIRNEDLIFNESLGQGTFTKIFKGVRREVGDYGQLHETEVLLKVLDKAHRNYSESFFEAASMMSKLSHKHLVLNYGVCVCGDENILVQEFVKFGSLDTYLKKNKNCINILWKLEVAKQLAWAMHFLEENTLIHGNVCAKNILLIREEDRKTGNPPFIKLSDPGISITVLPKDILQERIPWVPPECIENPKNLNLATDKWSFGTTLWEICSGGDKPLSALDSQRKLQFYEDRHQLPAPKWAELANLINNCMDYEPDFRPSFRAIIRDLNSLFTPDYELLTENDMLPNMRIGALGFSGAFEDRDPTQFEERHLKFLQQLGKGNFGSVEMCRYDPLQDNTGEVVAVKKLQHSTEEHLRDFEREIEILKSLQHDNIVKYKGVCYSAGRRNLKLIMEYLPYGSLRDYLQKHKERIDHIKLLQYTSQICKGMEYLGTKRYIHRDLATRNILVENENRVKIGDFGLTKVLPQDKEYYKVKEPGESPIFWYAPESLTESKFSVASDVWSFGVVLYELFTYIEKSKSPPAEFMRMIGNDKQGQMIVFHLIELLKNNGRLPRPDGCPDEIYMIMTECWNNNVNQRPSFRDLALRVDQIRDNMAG

For the compound `[2H]C([2H])([2H])NC(=O)c1cnc(NC(=O)C2CC2)cc1Nc1ccc2cnn(CC)c2c1OC` [Example 44, 6-(Cyclopropanecarboxamido)-4-((1-ethyl-7-methoxy-1H-indazol-6-yl)amino)-N-(methyl-d3)nicotinamide], the IC50 in series [1] was more than 5000 nM; in series [3], 219 nM; in series [4], 14.9 nM. For the same compound, the GI50 in series [2] was determined as 56.2 nM. The fraction unbound at 5 h in series [5] is 0.068. In series [6], this compound returned a solubility at 2 h of 38.7 µM (≈ 15.9 µg/mL).

`[2H]C([2H])([2H])NC(=O)c1cnc(NC(=O)C2CC2)cc1Nc1ccc2cnn(CC(F)(F)F)c2c1OC` [Example 129, 6-(Cyclopropanecarboxamido)-4-((7-methoxy-1-(2,2,2-trifluoroethyl)-1H-indazol-6-yl)amino)-N-(methyl-d3)nicotinamide]: the GI50 in series [2] was found to be 69.3 nM. In addition, the IC50 in series [3] worked out at 395 nM. Also, the fraction unbound at 5 h in series [5] was 0.034. The compound further showed a solubility at 2 h in series [6] of 13.6 µM (≈ 6.33 µg/mL).

For `[2H]C([2H])([2H])NC(=O)c1cnc(Nc2ccc(F)cn2)cc1Nc1nn(C)c2ccn(CC)c(=O)c12` [Example 139, 4-((5-Ethyl-1-methyl-4-oxo-4,5-dihydro-1H-pyrazolo[4,3-c]pyridin-3-yl)amino)-6-((5-fluoropyridin-2-yl)amino)-N-(methyl-d3)nicotinamide], in series [2], the GI50 is 33.1 nM. Moreover, the IC50 in series [3] turned out to be 1180 nM; in series [4] it was 23.3 nM. In addition, in series [5], the fraction unbound at 5 h was 0.039.

With `[2H]C([2H])([2H])NC(=O)c1cnc(NC(=O)C2CC2)cc1Nc1ccn2ncc(C#N)c2c1OC` [Example 165, 4-((3-Cyano-4-methoxypyrazolo[1,5-a]pyridin-5-yl)amino)-6-(cyclopropanecarboxamido)-N-(methyl-d3)nicotinamide], the IC50 is more than 5000 nM in series [1] and 284 nM in series [3]. In addition, the GI50 in series [2] was 98.2 nM. Also, in series [5], the fraction unbound at 5 h was 0.107.

Turning to `[2H]C([2H])([2H])NC(=O)c1cnc(NC(=O)C2CC2)cc1Nc1ncc2cnn(CC)c2c1OC` [Example 262, 6-(Cyclopropanecarboxamido)-4-((1-ethyl-7-methoxy-1H-pyrazolo[4,3-c]pyridin-6-yl)amino)-N-(methyl-d3)nicotinamide], the IC50 is more than 5000 nM in series [1] and 102 nM in series [3]. Also, in series [2], the GI50 is 41.6 nM. Besides, the fraction unbound at 5 h in series [5] is 0.124. Besides, the solubility at 2 h in series [6] was 17.6 µM (≈ 7.28 µg/mL).

Broadly, the IC50 is the concentration that gives 50% inhibition. As a reminder, the solubility is the dissolved amount per volume that the medium holds. Read a low solubility as a poorly soluble substance.
